# Test results from PubChem BioAssay (NCI).
#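 Cultured in 96-well plates, cells were exposed to test compound for 48 hours across five concentrations. The concentration for 50% growth inhibition is given as GI50. TGI marks complete inhibition of growth.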
# Tests used:
# Assay in all cases: growth of human tumour cells (NCI), 48 h
# A498 renal = test system: A498 renal
# ACHN renal = test system: ACHN renal
# BT-549 breast = test system: BT-549 breast
# CAKI-1 renal = test system: CAKI-1 renal
# CCRF-CEM leukemia = test system: CCRF-CEM leukemia
# DU-145 prostate = test system: DU-145 prostate
# EKVX NSCLC = test system: EKVX NSCLC
# HCC-2998 colon = test system: HCC-2998 colon
# HCT-15 colon = test system: HCT-15 colon
# HOP-92 NSCLC = test system: HOP-92 NSCLC
# K-562 leukemia = test system: K-562 leukemia
# KM12 colon = test system: KM12 colon
# LOX IMVI melanoma = test system: LOX IMVI melanoma
# MALME-3M melanoma = test system: MALME-3M melanoma
# MCF7 breast = test system: MCF7 breast
# MDA-MB-231 breast = test system: MDA-MB-231 breast
# MDA-MB-435 = test system: MDA-MB-435
# NCI-H226 lung = test system: NCI-H226 lung
# NCI-H23 lung = test system: NCI-H23 lung
# NCI-H460 lung = test system: NCI-H460 lung
# NCI-H522 lung = test system: NCI-H522 lung
# NCI/ADR-RES ovarian = test system: NCI/ADR-RES ovarian
# OVCAR-4 ovarian = test system: OVCAR-4 ovarian
# OVCAR-5 ovarian = test system: OVCAR-5 ovarian
# PC-3 prostate = test system: PC-3 prostate
# RPMI-8226 leukemia = test system: RPMI-8226 leukemia
# RXF 393 renal = test system: RXF 393 renal
# SF-295 CNS = test system: SF-295 CNS
# SF-539 CNS = test system: SF-539 CNS
# SK-MEL-2 melanoma = test system: SK-MEL-2 melanoma
# SK-MEL-28 melanoma = test system: SK-MEL-28 melanoma
# SK-MEL-5 melanoma = test system: SK-MEL-5 melanoma
# SN12C renal = test system: SN12C renal
# SNB-19 CNS = test system: SNB-19 CNS
# SNB-75 CNS = test system: SNB-75 CNS
# SR leukemia = test system: SR leukemia
# SW-620 colon = test system: SW-620 colon
# T-47D breast = test system: T-47D breast
# TK-10 renal = test system: TK-10 renal
# U251 CNS = test system: U251 CNS
# UACC-257 melanoma = test system: UACC-257 melanoma
# UACC-62 melanoma = test system: UACC-62 melanoma
# UO-31 renal = test system: UO-31 renal
# 786-0 renal = test system: 786-0 renal
# COLO 205 colon = test system: COLO 205 colon
# OVCAR-3 ovarian = test system: OVCAR-3 ovarian
# SF-268 CNS = test system: SF-268 CNS
# HCT-116 colon = test system: HCT-116 colon
# HL-60(TB) leukemia = test system: HL-60(TB) leukemia
# HOP-62 NSCLC = test system: HOP-62 NSCLC
# HS 578T breast = test system: HS 578T breast
# HT29 colon = test system: HT29 colon
# IGROV1 ovarian = test system: IGROV1 ovarian
# MOLT-4 leukemia = test system: MOLT-4 leukemia
# OVCAR-8 ovarian = test system: OVCAR-8 ovarian
# SK-OV-3 ovarian = test system: SK-OV-3 ovarian
smiles,measurement,setting,value
O=C(CCN1CCCC1)Nc1ccc2c(NCCCc3ccccc3)c3ccccc3nc2c1,GI50,A498 renal,1310 nM
same,TGI,A498 renal,3140 nM
same,GI50,ACHN renal,1420 nM
same,TGI,ACHN renal,2800 nM
same,GI50,BT-549 breast,1610 nM
same,TGI,BT-549 breast,3110 nM
same,GI50,CAKI-1 renal,14800 nM
same,TGI,CAKI-1 renal,28000 nM
same,GI50,CCRF-CEM leukemia,562 nM
same,TGI,CCRF-CEM leukemia,3030 nM
same,GI50,DU-145 prostate,886 nM
same,TGI,DU-145 prostate,2090 nM
same,GI50,EKVX NSCLC,1210 nM
same,TGI,EKVX NSCLC,2560 nM
same,GI50,HCC-2998 colon,1140 nM
same,TGI,HCC-2998 colon,2430 nM
same,GI50,HCT-15 colon,2620 nM
same,TGI,HCT-15 colon,10500 nM
same,GI50,HOP-92 NSCLC,875 nM
same,TGI,HOP-92 NSCLC,2240 nM
same,GI50,K-562 leukemia,945 nM
same,TGI,K-562 leukemia,3360 nM
same,GI50,KM12 colon,1170 nM
same,TGI,KM12 colon,2540 nM
same,GI50,LOX IMVI melanoma,739 nM
same,TGI,LOX IMVI melanoma,2040 nM
same,GI50,MALME-3M melanoma,1580 nM
same,TGI,MALME-3M melanoma,3120 nM
same,GI50,MCF7 breast,467 nM
same,TGI,MCF7 breast,1800 nM
same,GI50,MDA-MB-231 breast,1020 nM
same,TGI,MDA-MB-231 breast,2300 nM
same,GI50,MDA-MB-435,1460 nM
same,TGI,MDA-MB-435,2820 nM
same,GI50,NCI-H226 lung,1270 nM
same,TGI,NCI-H226 lung,2830 nM
same,GI50,NCI-H23 lung,1120 nM
same,TGI,NCI-H23 lung,2410 nM
same,GI50,NCI-H460 lung,460 nM
same,TGI,NCI-H460 lung,1600 nM
same,GI50,NCI-H522 lung,664 nM
same,TGI,NCI-H522 lung,2150 nM
same,GI50,NCI/ADR-RES ovarian,15100 nM
same,TGI,NCI/ADR-RES ovarian,71900 nM
same,GI50,OVCAR-4 ovarian,812 nM
same,TGI,OVCAR-4 ovarian,2260 nM
same,GI50,OVCAR-5 ovarian,1120 nM
same,TGI,OVCAR-5 ovarian,2400 nM
same,GI50,PC-3 prostate,566 nM
same,TGI,PC-3 prostate,1940 nM
same,GI50,RPMI-8226 leukemia,611 nM
same,TGI,RPMI-8226 leukemia,3630 nM
same,GI50,RXF 393 renal,918 nM
same,TGI,RXF 393 renal,2200 nM
same,GI50,SF-295 CNS,1310 nM
same,TGI,SF-295 CNS,2590 nM
same,GI50,SF-539 CNS,1240 nM
same,TGI,SF-539 CNS,2550 nM
same,GI50,SK-MEL-2 melanoma,1690 nM
same,TGI,SK-MEL-2 melanoma,3240 nM
same,GI50,SK-MEL-28 melanoma,1770 nM
same,TGI,SK-MEL-28 melanoma,3250 nM
same,GI50,SK-MEL-5 melanoma,1610 nM
same,TGI,SK-MEL-5 melanoma,2970 nM
same,GI50,SN12C renal,815 nM
same,TGI,SN12C renal,2210 nM
same,GI50,SNB-19 CNS,729 nM
same,TGI,SNB-19 CNS,2000 nM
same,GI50,SNB-75 CNS,1170 nM
same,TGI,SNB-75 CNS,2410 nM
same,GI50,SR leukemia,467 nM
same,TGI,SR leukemia,2550 nM
same,GI50,SW-620 colon,540 nM
same,TGI,SW-620 colon,1930 nM
same,GI50,T-47D breast,1340 nM
same,TGI,T-47D breast,3910 nM
same,GI50,TK-10 renal,1660 nM
same,TGI,TK-10 renal,3410 nM
same,GI50,U251 CNS,1040 nM
same,TGI,U251 CNS,2360 nM
same,GI50,UACC-257 melanoma,1810 nM
same,TGI,UACC-257 melanoma,3640 nM
same,GI50,UACC-62 melanoma,1540 nM
same,TGI,UACC-62 melanoma,2930 nM
same,GI50,UO-31 renal,1600 nM
same,TGI,UO-31 renal,3160 nM
Cc1ccc2c(O)c3c(cc2c1)C(=O)c1c2c(cc(O)c1C3=O)C1(C)OC(O2)C(O)C(N(C)C)C1O (centres undefined),TGI,786-0 renal,1600 nM
same,TGI,A498 renal,2370 nM
same,TGI,ACHN renal,1880 nM
same,TGI,COLO 205 colon,1910 nM
same,TGI,DU-145 prostate,2230 nM
same,TGI,HCC-2998 colon,2340 nM
same,TGI,HCT-15 colon,2440 nM
same,TGI,HOP-92 NSCLC,2220 nM
same,TGI,K-562 leukemia,442 nM
same,TGI,KM12 colon,2770 nM
same,TGI,NCI/ADR-RES ovarian,2420 nM
same,TGI,OVCAR-3 ovarian,1590 nM
same,TGI,OVCAR-5 ovarian,3730 nM
same,TGI,SF-268 CNS,81000 nM
same,TGI,TK-10 renal,3100 nM
CC(=O)c1cn(-c2ccc(Cl)cc2)c(=O)c2c(N)n[nH]c12,TGI,786-0 renal,> 100000 nM
same,TGI,A498 renal,> 100000 nM
same,TGI,ACHN renal,> 100000 nM
same,TGI,BT-549 breast,> 100000 nM
same,TGI,CAKI-1 renal,> 100000 nM
same,TGI,CCRF-CEM leukemia,> 100000 nM
same,TGI,COLO 205 colon,> 100000 nM
same,TGI,DU-145 prostate,> 100000 nM
same,TGI,EKVX NSCLC,> 100000 nM
same,TGI,HCC-2998 colon,> 100000 nM
same,TGI,HCT-116 colon,> 100000 nM
same,TGI,HCT-15 colon,> 100000 nM
same,TGI,HL-60(TB) leukemia,> 100000 nM
same,TGI,HOP-62 NSCLC,> 100000 nM
same,TGI,HS 578T breast,> 100000 nM
same,TGI,HT29 colon,> 100000 nM
same,TGI,IGROV1 ovarian,> 100000 nM
same,TGI,K-562 leukemia,> 100000 nM
same,TGI,KM12 colon,> 100000 nM
same,TGI,LOX IMVI melanoma,> 100000 nM
same,TGI,MDA-MB-231 breast,> 100000 nM
same,TGI,MDA-MB-435,> 100000 nM
same,TGI,MOLT-4 leukemia,> 100000 nM
same,TGI,NCI-H226 lung,> 100000 nM
same,TGI,NCI-H23 lung,> 100000 nM
same,TGI,NCI-H460 lung,> 100000 nM
same,TGI,NCI/ADR-RES ovarian,> 100000 nM
same,TGI,OVCAR-4 ovarian,> 100000 nM
same,TGI,OVCAR-8 ovarian,> 100000 nM
same,TGI,PC-3 prostate,> 100000 nM
same,TGI,RPMI-8226 leukemia,> 100000 nM
same,TGI,RXF 393 renal,> 100000 nM
same,TGI,SF-268 CNS,> 100000 nM
same,TGI,SF-295 CNS,> 100000 nM
same,TGI,SK-MEL-2 melanoma,> 100000 nM
same,TGI,SK-MEL-28 melanoma,> 100000 nM
same,TGI,SK-MEL-5 melanoma,> 100000 nM
same,TGI,SK-OV-3 ovarian,> 100000 nM
same,TGI,SNB-19 CNS,> 100000 nM
same,TGI,SNB-75 CNS,> 100000 nM
same,TGI,SR leukemia,> 100000 nM
same,TGI,SW-620 colon,> 100000 nM
same,TGI,T-47D breast,> 100000 nM
same,TGI,TK-10 renal,> 100000 nM
same,TGI,U251 CNS,> 100000 nM
same,TGI,UACC-257 melanoma,> 100000 nM
same,TGI,UACC-62 melanoma,> 100000 nM
same,TGI,UO-31 renal,> 100000 nM
